Source: patent US9829488B2, “Paper-based cellular arrays” (President and Fellows of Havard College, priority 2008, dated 2017)

Assays:
3T3 fibroblasts = test: Proliferation of 3T3 fibroblasts in MATRIGEL-permeated paper in 96-well plate (Alamar Blue); format: cell-based; conditions: colchicine added to the wells
Description: One exemplary method is depicted in FIG. 8. In this method, a paper array of the same size is distributed to each well of the microtiter plate to ensure delivery of nearly identical number of cells per well (FIG. 8A). To illustrate this strategy, 2 mm×4 mm pieces of filter paper were permeated with suspension of 3T3 fibroblasts in MATRIGEL™ and then distributed into the wells of a 96-well plate. Alamar Blue was used to estimate the number of cells. […] 3T3 cells proliferated within MATRIGEL™-soaked paper but not within the MATRIGEL™-free paper (FIG. 8B), and this proliferation was halted when colchicine was added to the wells. This system, therefore, can be used to screen for agents that influence proliferation of cells in three-dimensional arrays.

HUVEC = test: Three-dimensional migration (invasion) of HUVEC cells in MATRIGEL-permeated paper; format: cell-based, human
Procedure: A suspension of cells in […]™ (1 μL, 10^7 cells/mL) was spotted onto paper, and the paper was immersed in […]™. […] Migration of the cells into the surrounding […]™ was monitored over time using a fluorescent gel scanner. […] The radius of the cell-containing spot served as the measure of the migration. Cell-containing sheets were suspended in endothelial culture media supplemented with 100 ng/mL VEGF (“VEGF”) or 10 μM of small molecule inhibitor of Rho kinase Y27632 (“Y27632”).

PC-12 cells [1] = test: Neuronal differentiation of PC-12 cells in paper-supported MATRIGEL (confocal microscopy, neurites); format: cell-based, rat; conditions: 6 days, 100 ng/mL NGF
Description: Next, we assessed whether PC-12 cells maintained in paper-supported three-dimensional matrices were differentiated into neurons using NGF-treatment. We spotted suspensions of PC12 cells in MATRIGEL™ onto paper and suspended the paper in the media supplemented with NGF or with a combination of NGF and the ROCK inhibitor Y27632. Confocal microscopy examination uncovered neuron-like cells with long neurites. The morphology of cells and length of neurites varied when different media/additives were used.

[2] = system: PC-12 rat adrenal pheochromocytoma cell line; test: Proliferation of PC-12 cells in MATRIGEL-permeated paper (phalloidin stain, gel scanner); format: cell-based; conditions: serum-containing media, 100 ng/mL NGF
Procedure: First, we assessed the proliferation of PC-12 cells grown in paper in response to NGF. Suspensions of PC12 cells in MATRIGEL™ (1 uL, 5×10^6 cells/mL) were spotted onto filter paper. The paper was placed in serum-containing media (2.5% fetal bovine serum, 15% horse serum in F12K basal media) or serum-containing media supplemented with 100 ng/mL of nerve growth factor (NGF). Cells within paper MATRIGEL™ matrix were cultured for the indicated times, fixed with formaldehyde, and stained with Alexa Fluor 488-conjugated phalloidin. The paper was scanned using a Typhoon fluorescent gel scanner (see FIG. 13A). Error bars are one standard deviation.

PC-12 cells [3] = test: Quantitative PCR of neuronal transcripts NF-L and NPY in PC-12 cells; format: cell-based, rat; conditions: 100 ng/mL, day 3 or 4, GAPDH as reference
Procedure: Finally, we compared the differentiation of PC-12 cells maintained in paper-supported MATRIGEL™ (“paper”) with that of cells in paper-free MATRIGEL™ (“3D”) or on MATRIGEL™ coated surfaces (“2D”).
Cells in these matrices were proliferated in serum-containing media or in media supplemented with 100 ng/mL NFG. On day 3 or 4, the samples were processed to isolate mRNA and the level of expression of NF-L or NPY were assessed by quantitative PCR. GAPDH and actin were used as housekeeping controls. ΔΔCT-analysis was performed in the linear range for every primer using GAPDH as a reference. In FIG. 14, each data point is an average of measurements from 3 independent samples. The error bar is one standard deviation.

In the case of `COc1cc2c(c(OC)c1OC)-c1ccc(OC)c(=O)cc1[C@@H](NC(C)=O)CC2` [colchicine], the “proliferation of 3T3 cells within MATRIGEL-soaked paper” value (3T3 fibroblasts) is reported as “halted”.
With `C[C@@H](N)[C@H]1CC[C@H](C(=O)Nc2ccncc2)CC1` [Y27632, reference compound] the “outgrowth of cells (migration into surrounding MATRIGEL)” value (HUVEC; endothelial culture media + 10 μM Y27632) was “promoted” and the “neurites developed by cells” value (PC-12 cells [1]; serum-free media, 5 μM Y27632) was “extensive 3D network of interconnected neurites”.
In the case of NGF: nerve growth factor, the “effect on growth rate of the cells” value [2] is reported as “little effect”, the “level of NF-L expression” value (PC-12 cells [3]) is reported as “induced” and the “level of NPY expression” value (PC-12 cells [3]) is reported as “induced”. The “neurites developed by cells” value (PC-12 cells [1]; serum containing media) was “short neurites” and the “neurites developed by cells” value (PC-12 cells [1]; serum-free media) was “longer neurites”.
For VEGF, the “radius of the invasion” value (HUVEC; EGM with additional 100 ng/mL VEGF, compared with EGM+10 μM Y27632) was “significantly lower”.
